Experimental data from BindingDB's records for doi:10.7270/Q2BC3WZZ (Pcmd, 2008).

Target: T1, Coagulation factor XII (Homo sapiens, UniProt P00748)
T1 sequence (P00748 whole entry): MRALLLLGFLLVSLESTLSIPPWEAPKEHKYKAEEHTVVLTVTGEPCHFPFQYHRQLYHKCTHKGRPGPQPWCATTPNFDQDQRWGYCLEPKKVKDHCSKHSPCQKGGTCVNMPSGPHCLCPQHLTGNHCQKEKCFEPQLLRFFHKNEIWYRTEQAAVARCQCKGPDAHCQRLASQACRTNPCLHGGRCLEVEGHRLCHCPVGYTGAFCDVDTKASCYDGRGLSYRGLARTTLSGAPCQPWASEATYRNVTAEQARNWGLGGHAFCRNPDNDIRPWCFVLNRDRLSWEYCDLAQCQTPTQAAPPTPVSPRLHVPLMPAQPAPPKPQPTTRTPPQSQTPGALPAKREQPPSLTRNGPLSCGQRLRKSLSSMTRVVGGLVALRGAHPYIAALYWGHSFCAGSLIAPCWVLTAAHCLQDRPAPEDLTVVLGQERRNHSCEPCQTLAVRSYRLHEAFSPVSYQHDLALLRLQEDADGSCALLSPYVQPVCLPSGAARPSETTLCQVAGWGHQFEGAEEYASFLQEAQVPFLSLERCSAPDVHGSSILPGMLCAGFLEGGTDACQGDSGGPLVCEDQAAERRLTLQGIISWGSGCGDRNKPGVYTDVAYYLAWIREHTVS
Test: FXIIa inhibitor potency, concentration-response, biochemical (AID 716)

IC50	Structure (SMILES)
> 50 µM	C=CCOC(=O)C1=C(C)N=C(C)C(C(=O)OCC=C)C1c1ccc(O)cc1 (configuration not stated) [SMR000107649]
> 50 µM	CC(C)C1c2c(-c3cccs3)n[nH]c2OC(=N)C1C#N (configuration not stated) [SMR000014022]
